The values below come from patent publication US20240181020A1, “TREATMENT OF HYPOPARATHYROIDISM” (Entera Bio Ltd., priority 2015, published 2024).

Series [1] is described as follows: Release of SNAC from tablets with or without sodium bicarbonate in simulated gastric buffer. It is filed as physicochemical. Conditions: tablet with 100 mg sodium bicarbonate vs without; simulated gastric buffer pH 2.0, 37° C., 50 rotations per minute; FIG. 24. As for the experimental part: The tablets were in a form of a homogeneous mixture. Each tablet formulation was subjected to a dissolution test in 100 ml of simulated gastric buffer (without pepsin), pH 2.0, at 37° C., according to USP 23 Apparatus 2 (paddle) with 50 rotations per minute. The amount of released SNAC in each sample was determined chromatographically, using an HPLC apparatus with Cosmosil™ 5 C18-MS-II (4.6 ID×250 mm) column. Mobile phase consisted of 50% acetonitrile and 50% phosphoric acid solution (0.1%). Flow rate was 1 ml/minute and injection volume was 25 μl. Amount of released SNAC was calculated as a percentage of the amount of SNAC in the formulation.

The nature of series [2]: Open label comparative pharmacokinetic study: oral teriparatide tablet with water or sodium bicarbonate solution. The series is classed as in vivo, human. Conditions: 0.75 mg oral tablet with 150 ml of 3 mg/ml sodium bicarbonate solution vs 150 ml water; ten healthy volunteers; FIG. 25. As for the experimental part:
An open label comparative pharmacokinetic study was performed on ten healthy volunteers. On different visits, each volunteer received the same oral tablet containing 0.75 mg of teriparatide, a recombinant form of parathyroid hormone (1-34) (PTH(1-34)). In the first visit, the tablet was administered with 150 ml water, whereas in the second visit the tablet was administered with 150 ml of 3 mg/ml sodium bicarbonate aqueous solution.
The formulation was composed of teriparatide (0.75 mg), SNAC (sodium 8-N-(2-hydroxybenzoyl) aminocaprylate), soybean trypsin inhibitor (SBTI) and a small amount of magnesium stearate.
Tablets were administered in the morning after an 8-hour overnight fast. At each visit a standard meal was provided 3 hours after drug administration. […] There was a two week period between the two visits.
To determine PTH(1-34) concentrations, blood samples were drawn and PTH(1-34) levels were measured using an IDS-iSYS automated assay, using procedures described in Example 1 hereinabove. Relative absorption was determined based on the AUC (area under curve) parameter.

A short description of series [3]: Phase I clinical study: plasma PTH(1-34) after oral teriparatide tablets vs subcutaneous injection. The series is classed as in vivo, human. The settings on record: healthy volunteers, FIG. 1. As for the experimental part: A Phase I clinical study of exemplary oral formulations comprising teriparatide (parathyroid hormone (1-34)) was conducted at the Hadassah Clinical Research Center. 42 healthy volunteers were included throughout the study.
The formulation was composed of teriparatide (200, 400, 680, 1400 or 1800 μg), SNAC (sodium 8-N-(2-hydroxybenzoyl) aminocaprylate), soybean trypsin inhibitor and magnesium stearate.
Tablets were administered in the morning after an 8-hour overnight fast and immediately followed by 150 ml of water. At each visit a standard meal was provided 3 hours after drug administration.
To determine parathyroid hormone(1-34) concentrations, blood samples (4 ml each) were drawn via an indwelling catheter from the forearm vein at predetermined time points. The cannula was flushed with 1.5 ml normal saline after each sampling. In addition, to avoid sample dilution, 1 ml of blood was drawn and discarded before the next sample. The blood samples were taken at following times: baseline (predose), 15 minutes, 30 minutes, 45 minutes, 60 minutes, 75 minutes, 90 minutes, 105 minutes, 2 hours, 3 hours, 4 hours and 5 hours post-administration. Each blood sample was collected into a single tube containing EDTA (ethylenediaminetetraacetic acid) and placed on ice. […] PTH levels were measured using an IDS-iSYS automated assay for the measurement of intact PTH in human plasma or serum. […]

Series [4] relates to plasma levels of cAMP, a known marker of PTH activity. The experiment in a line: Phase I clinical study: plasma cAMP as marker of PTH activity. It is filed as in vivo, human. The settings on record: oral 680 μg and subcutaneous 20 μg teriparatide; FIG. 3. As for the experimental part: In addition, plasma levels of cAMP, a known marker of PTH activity, were determined in order to confirm biological activity of administered PTH. cAMP plasma levels were measured following oral administration of 680 μg teriparatide or subcutaneous injection of 20 μg teriparatide, as described hereinabove.

For series [5], the system named is patients with established primary hypoparathyroidism (PHP). The experiment in a line: Phase IIa multi-center clinical study of oral teriparatide, 4 times per day for 16 weeks. It is filed as in vivo, human. On the procedure:
A Phase IIa multi-center clinical study of an exemplary oral formulation comprising teriparatide was conducted on 19 patients with established primary hypoparathyroidism (PHP) (for more than one year). PHP was postsurgical in 13 patients, autoimmune in 5 patients and hereditary in 1 patient.
The average age of the patients was 44.5 years (range 20.3 to 71 years). At enrollment, the patients were treated with an average of 3.64 grams calcium supplement per day (range 1-10.8 grams per day) and 1.1 μg alphacalcidol supplement per day (range 0-2 μg per day). Patients with low hemoglobin, estimated glomerular filtration rate (eGFR) of less than 40 ml per minute per 1.73 m^2, liver enzymes at least 3 times the upper limit, drug or alcohol abuse, kidney/urinary tract stones, 25-hydroxycholecalciferol (25(OH)D) serum levels of less than 20 ng/ml or BMI outside the range of […] were excluded from the study.
The formulation was composed of teriparatide (750 μg per dose), SNAC, soybean trypsin inhibitor and magnesium stearate.
Teriparatide was administered 4 times per day, prior to meals, for 16 weeks. Following the first two doses, plasma samples were taken for pharmacokinetic analysis by determining teriparatide serum levels according to procedures described in Example 1. On the first day of treatment during follow up visits at the end of weeks 1, 2, 3, 4, 6, 8, 10, 12 and 16, serum calcium, phosphorus, albumin, and creatinine were evaluated, and dose adjustment of supplemental calcium medications was performed based on albumin adjusted calcium (ACa) levels. 24 hour urine samples were collected at the end of weeks 8 and 16. Quality of Life was (QoL) was monitored using a standard questionnaire.

Series [6] concerns hypoparathyroidism. Conditions: cited from earlier work.
The nature of series [7]: Phase IIa study: teriparatide serum levels after oral dosing before and after a meal. It is filed as in vivo, human. Conditions: second administration on day 1 vs empty stomach. As for the experimental part: To determine parathyroid hormone(1-34) concentrations, blood samples (4 ml each) were drawn via an indwelling catheter from the forearm vein at predetermined time points. The cannula was flushed with 1.5 ml normal saline after each sampling. In addition, to avoid sample dilution, 1 ml of blood was drawn and discarded before the next sample. The blood samples were taken at following times: baseline (predose), 15 minutes, 30 minutes, 45 minutes, 60 minutes, 75 minutes, 90 minutes, 105 minutes, 2 hours, 3 hours, 4 hours and 5 hours post-administration. Each blood sample was collected into a single tube containing EDTA (ethylenediaminetetraacetic acid) and placed on ice. Within 15 minutes of blood collection, samples were centrifuged for 10 minutes at 4° C. […] PTH levels were measured using an IDS-iSYS automated assay for the measurement of intact PTH in human plasma or serum.
Teriparatide was administered 4 times per day, prior to meals, for 16 weeks. […] On the first day of treatment during follow up visits at the end of weeks 1, 2, 3, 4, 6, 8, 10, 12 and 16, serum calcium, phosphorus, albumin, and creatinine were evaluated, and dose adjustment of supplemental calcium medications was performed based on albumin adjusted calcium (ACa) levels. […] Quality of Life was (QoL) was monitored using a standard questionnaire.

The mark [8] stands for this setting: patient, 16-week treatment, FIG. 8.

SMILES strings stand for the structures.

For `O=C(O)CCCCCCCNC(=O)c1ccccc1O` [SNAC, sodium 8-N-(2-hydroxybenzoyl)aminocaprylate], the “dissolution of SNAC from tablets, effect of sodium bicarbonate” value in series [1] is on record as “considerably enhanced the dissolution”.

As to `CC[C@H](C)[C@H](NC(=O)[C@H](CCC(=O)O)NC(=O)[C@H](CO)NC(=O)[C@@H](NC(=O)[C@@H](N)CO)C(C)C)C(=O)N[C@@H](CCC(N)=O)C(=O)N[C@@H](CC(C)C)C(=O)N[C@@H](CCSC)C(=O)N[C@@H](Cc1cnc[nH]1)C(=O)N[C@@H](CC(N)=O)C(=O)N[C@@H](CC(C)C)C(=O)NCC(=O)N[C@@H](CCCCN)C(=O)N[C@@H](Cc1cnc[nH]1)C(=O)N[C@@H](CC(C)C)C(=O)N[C@@H](CC(N)=O)C(=O)N[C@@H](CO)C(=O)N[C@@H](CCSC)C(=O)N[C@@H](CCC(=O)O)C(=O)N[C@@H](CCCN=C(N)N)C(=O)N[C@H](C(=O)N[C@@H](CCC(=O)O)C(=O)N[C@@H](Cc1c[nH]c2ccccc12)C(=O)N[C@@H](CC(C)C)C(=O)N[C@@H](CCCN=C(N)N)C(=O)N[C@@H](CCCCN)C(=O)N[C@@H](CCCCN)C(=O)N[C@@H](CC(C)C)C(=O)N[C@@H](CCC(N)=O)C(=O)N[C@@H](CC(=O)O)C(=O)N[C@H](C(=O)N[C@@H](Cc1cnc[nH]1)C(=O)N[C@@H](CC(N)=O)C(=O)N[C@@H](Cc1ccccc1)C(=O)O)C(C)C)C(C)C` [teriparatide], in series [2], the “increase in absorption of PTH(1-34) (AUC)” value is “about 35%”. In addition, the “Cmax of PTH(1-34) following oral administration, relation to dose” value in series [3] (oral doses 200, 400, 680, 1400 or 1800 μg) was “proportional to the dose”. The “oral dose of teriparatide providing a Cmax equivalent to that of subcutaneous administration of 20 μg teriparatide” value in series [3] (oral tablets with SNAC, soybean trypsin inhibitor, magnesium stearate, 8-hour overnight fast) is reported as “roughly 750 μg”. Further, in series [4], the “plasma cAMP levels” value is reported as “increased plasma cAMP levels to a similar degree”. Moreover, the “urinary calcium, margin below the upper limit of normal” value in series [5] (3 subjects with sustained elevations) is listed as “more than 30%”. In addition, in series [5] (13 subjects with sustained decrease), the “average decrease in urinary calcium” value was 34%. The urinary calcium in series [5] (13 subjects with sustained decrease, from 209 mg per 24 hours) was determined as 136 mg per 24 hours. In addition, in series [5] (60 minutes after oral dose, throughout 16 weeks), the “serum phosphorus after each dose, range” value was in the range of 2.9 to 5.2 mg/dL. Further, in series [5] (60 minutes after oral dose, throughout 16 weeks, p<0.02, FIG. 5), the “serum phosphorus, average level after each dose” value amounted to 4.3 mg/dL. The “pre-dose serum phosphorus levels” value in series [5] (FIG. 5) is listed as “reduced following 2 weeks of treatment”. Further, the “reduction of calcium intake” value in series [5] (after 16 weeks, relative to baseline) came to 1278 ± 880 mg. The “average reduction of calcium intake” value in series [5] (after 16 weeks, relative to baseline, FIG. 4) turned out to be 37%. For the same compound, in series [5] (after 16 weeks, baseline 3692 mg), the calcium intake was determined as 2414 mg. Further, the “subjects with urinary calcium above the normal range” value in series [5] (at the end of 16 weeks, subjects who completed the study) is “one of the 17”. Further, the “albumin adjusted calcium, range” value in series [5] (during treatment, baseline range 7.2-8.99) was 6.97-9.14 md/dL. Besides, in series [5] (maintained during treatment while calcium intake was decreased, baseline 7.92), the “albumin adjusted calcium, mean level” value was 8.15 mg/dL. Besides, the related adverse events result in series [5] (oral 750 μg per dose, 4 times per day, 16 weeks, 17 subjects completed) is reported as “no related adverse events”. Besides, the safety and tolerability entry in series [5] (oral 750 μg per dose, 4 times per day, 16 weeks, 17 subjects completed, over 8000 doses) is “safe and well tolerated”. Further, in series [5] (setting [8]), the “reduction of calcium intake, sample case” value is reported as “over 50%” and the “reduction of urinary calcium levels, sample case” value is “over 50%”. Also, the “total serum levels of 25-hydroxycholecalciferol (25(OH)D), sample case” value in series [5] (patient, end of week 4, baseline 32.2 ng/ml, constant alphacalcidol) came to 36.7 ng/mL. In addition, in series [5] (patient, FIG. 9), the “ACa levels, sample case” value was “gradually increased” and the “serum phosphate levels, sample case” value was “gradually decreased”. Further, the “Quality of Life health score, sample case” value in series [5] (patient, increased from 70) came to 80. Also, the “reduction in the PTH dose needed to maintain normal serum calcium levels” value in series [6] (pump vs twice-daily subcutaneous injection, from 37 μg per day to 13 μg per day) is reported as 65%. Also, in series [6] (subcutaneous infusion by insulin pump vs twice-daily subcutaneous injection), the “reduction in urine calcium” value was “more than 50%”. In addition, the “PTH(1-34) serum levels, after a meal relative to prior to a meal, sample case” value in series [7] (patient, FIG. 10) is “about half”. Besides, the “PTH(1-34) serum levels, after a meal relative to prior to a meal” value in series [7] (FIGS. 6 and 7) is “about half”.
